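Following 48 hours of exposure in 96-well plates, responses at five concentrations were used to interpolate endpoints linearly. GI50 marks 50% less growth. TGI: total growth inhibition.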
Each molecule was assayed on U251 CNS (assay: NCI anticancer screen, dose series, 48 h).
In the case of CCOC(=O)N1CCC2(CC1)C[C@](C)(C(C)=O)C(C)O2 (some centres not stated), the TGI is reported as greater than 100 µM. COc1cc2c(cc1OC)C(c1ccccc1CCCCl)=NCC2 showed a TGI greater than 100 µM. Work on COc1cc([C@@H]2c3cc4c(cc3[C@@H](Nc3ccc([N+](=O)[O-])cc3C(=O)c3ccccc3)[C@H]3COC(=O)[C@H]23)OCO4)cc(OC)c1OC yielded a TGI greater than 100 µM. NC(Cc1c[nH]c2c(O)cccc12)C(=O)O (configuration not stated) showed a GI50 greater than 100 µM and a TGI greater than 100 µM.

What follows are molecules tested on HCT-15 colon (assay: NCI anticancer screen, dose series, 48 h).
Molecule O=S(=O)(NC1=NCCN1C(=S)SN1CCn2c1nsc2=S)c1ccc(OC(F)(F)F)cc1 has a GI50 of 8.64 µM and a TGI of 26.2 µM. Work on CCOC(=O)N1CCC2(CC1)C[C@](C)(C(C)=O)C(C)O2 (some centres not stated) yielded a TGI greater than 100 µM. With COc1cc2c(cc1OC)C(c1ccccc1CCCCl)=NCC2 the TGI was greater than 100 µM. NC(Cc1c[nH]c2c(O)cccc12)C(=O)O (configuration not stated) showed a GI50 greater than 100 µM and a TGI greater than 100 µM.

Each molecule was assayed on HCC-2998 colon (assay: NCI anticancer screen, dose series, 48 h).
Work on O=S(=O)(NC1=NCCN1C(=S)SN1CCn2c1nsc2=S)c1ccc(OC(F)(F)F)cc1 yielded a GI50 of 12.7 µM and a TGI of 26.1 µM. With CCOC(=O)N1CCC2(CC1)C[C@](C)(C(C)=O)C(C)O2 (some centres not stated) the TGI was greater than 100 µM. COc1cc2c(cc1OC)C(c1ccccc1CCCCl)=NCC2 showed a TGI greater than 100 µM. Work on COc1cc([C@@H]2c3cc4c(cc3[C@@H](Nc3ccc([N+](=O)[O-])cc3C(=O)c3ccccc3)[C@H]3COC(=O)[C@H]23)OCO4)cc(OC)c1OC yielded a TGI greater than 100 µM. NC(Cc1c[nH]c2c(O)cccc12)C(=O)O (configuration not stated) gave a GI50 greater than 100 µM and a TGI greater than 100 µM.

These molecules were tested on OVCAR-8 ovarian (assay: NCI anticancer screen, dose series, 48 h).
For O=S(=O)(NC1=NCCN1C(=S)SN1CCn2c1nsc2=S)c1ccc(OC(F)(F)F)cc1, the GI50 was 16.3 µM and the TGI was 39.3 µM. For CCOC(=O)N1CCC2(CC1)C[C@](C)(C(C)=O)C(C)O2 (some centres not stated), the TGI was greater than 100 µM. Molecule COc1cc2c(cc1OC)C(c1ccccc1CCCCl)=NCC2 has a TGI greater than 100 µM. COc1cc([C@@H]2c3cc4c(cc3[C@@H](Nc3ccc([N+](=O)[O-])cc3C(=O)c3ccccc3)[C@H]3COC(=O)[C@H]23)OCO4)cc(OC)c1OC gave a TGI greater than 100 µM. With NC(Cc1c[nH]c2c(O)cccc12)C(=O)O (configuration not stated) the GI50 was greater than 100 µM and the TGI was greater than 100 µM.

Each molecule was assayed on BT-549 breast (assay: NCI anticancer screen, dose series, 48 h).
Work on COc1cc2c(cc1OC)C(c1ccccc1CCCCl)=NCC2 yielded a TGI greater than 100 µM. NC(Cc1c[nH]c2c(O)cccc12)C(=O)O (configuration not stated) was tested, and the GI50 was greater than 100 µM and the TGI was greater than 100 µM.

What follows are molecules tested on SNB-75 CNS (assay: NCI anticancer screen, dose series, 48 h).
Molecule O=S(=O)(NC1=NCCN1C(=S)SN1CCn2c1nsc2=S)c1ccc(OC(F)(F)F)cc1 has a GI50 of 14.7 µM and a TGI of 34.4 µM. COc1cc2c(cc1OC)C(c1ccccc1CCCCl)=NCC2 gave a TGI greater than 100 µM. With COc1cc([C@@H]2c3cc4c(cc3[C@@H](Nc3ccc([N+](=O)[O-])cc3C(=O)c3ccccc3)[C@H]3COC(=O)[C@H]23)OCO4)cc(OC)c1OC the TGI was greater than 100 µM. With NC(Cc1c[nH]c2c(O)cccc12)C(=O)O (configuration not stated) the GI50 was greater than 100 µM and the TGI was greater than 100 µM.

These molecules were tested on SK-MEL-5 melanoma (assay: NCI anticancer screen, dose series, 48 h).
In the case of O=S(=O)(NC1=NCCN1C(=S)SN1CCn2c1nsc2=S)c1ccc(OC(F)(F)F)cc1, the GI50 is reported as 8.49 µM and the TGI is reported as 21.8 µM. In the case of CCOC(=O)N1CCC2(CC1)C[C@](C)(C(C)=O)C(C)O2 (some centres not stated), the TGI is reported as greater than 100 µM. With COc1cc2c(cc1OC)C(c1ccccc1CCCCl)=NCC2 the TGI was 47.2 µM. NC(Cc1c[nH]c2c(O)cccc12)C(=O)O (configuration not stated) showed a GI50 of 49.6 µM and a TGI greater than 100 µM.

These molecules were tested on SK-OV-3 ovarian (assay: NCI anticancer screen, dose series, 48 h).
Molecule C=C(C)[C@@H]1CCC[C@]2(COS(=O)(=O)c3ccc(C)cc3)CC[C@]3(C)[C@@H](CC[C@@H]4[C@@]5(C)CCCNC(C)(C)[C@@H]5CC[C@]43C)[C@@H]12 has a GI50 of 1.87 µM and a TGI of 3.3 µM. For O=S(=O)(NC1=NCCN1C(=S)SN1CCn2c1nsc2=S)c1ccc(OC(F)(F)F)cc1, the GI50 was 19.5 µM and the TGI was 34.6 µM. CCOC(=O)N1CCC2(CC1)C[C@](C)(C(C)=O)C(C)O2 (some centres not stated) was tested, and the TGI was greater than 100 µM. Molecule COc1cc2c(cc1OC)C(c1ccccc1CCCCl)=NCC2 has a TGI greater than 100 µM. Molecule COc1cc([C@@H]2c3cc4c(cc3[C@@H](Nc3ccc([N+](=O)[O-])cc3C(=O)c3ccccc3)[C@H]3COC(=O)[C@H]23)OCO4)cc(OC)c1OC has a TGI greater than 100 µM.
